In assay [1] the test system is TF-VIIa signaling. Kind of assay: TF-VIIa signaling in HaCaT cells (MAP kinase phosphorylation).
In assay [2] the target is tissue factor (TF) coagulant activity (Homo sapiens, UniProt P13726). Kind of assay: TF coagulant activity (Xa generation) on HaCaT cells. The class given is cell-based.
Assay [3] concerns the target TF-PAR2 complex (Homo sapiens, UniProt P13726). As to the kind of experiment: TF-PAR2 complex co-immunoprecipitation from HaCaT cells. The class given is cell-based. As to conditions: Hg2+ pretreatment, high Ca2+ cells. From the text: Additional studies as illustrated in FIG. 7 indicate that TF-VIIa signaling requires TF.PAR2 complex formation. […] Loading controls were not feasible due to background, because no PAR suitable antibody from a different species was available for Western-blotting. […] MPB-labeled cells were immunoprecipitated with MAb-9C3 or MAb-10H10 and probed for PDI, TF or thiol-biotinylation with MPB.

The target of assay [4] is PDI association with TF (Homo sapiens, UniProt P07237). As to the kind of experiment: Cell surface MPB/NHS labelling and TF immunoprecipitation (PDI association with TF).
Method: Cell surface labelling, immunoprecipitation, confocal imaging Cells were washed and labelled in HEPES buffer with 1.5 mM calcium chloride with either 100 μM MPB or 0.5 mg/ml NHS biotin at 4° C. for 20 min. […] Blots were digitized for densitometry using NIH Image Scion. Cells were stained on ice with directly conjugated antibodies for confocal microscopy using a Nikon TE2000-U microscope. Optical sections of each fluorophor were merged using Adobe Photoshop.

The structures appear in SMILES notation. Read-outs that look alike come from different tables or passages of the source. Where a SMILES comes first, the peptide text is derived from it. Bridges are numbered along the chain shown (N, C = ends). [ ]: non-standard residue; d: D form. The star is where a group is joined. Ileψ(thiazoline)Cys = CC[C@H](C)[C@H](N)C1=N[C@H](C(=O)*)CS1; dOrn = NCCC[C@@H](N)C(=O)O

Chain of tissue factor (TF) coagulant activity (P13726 33-295): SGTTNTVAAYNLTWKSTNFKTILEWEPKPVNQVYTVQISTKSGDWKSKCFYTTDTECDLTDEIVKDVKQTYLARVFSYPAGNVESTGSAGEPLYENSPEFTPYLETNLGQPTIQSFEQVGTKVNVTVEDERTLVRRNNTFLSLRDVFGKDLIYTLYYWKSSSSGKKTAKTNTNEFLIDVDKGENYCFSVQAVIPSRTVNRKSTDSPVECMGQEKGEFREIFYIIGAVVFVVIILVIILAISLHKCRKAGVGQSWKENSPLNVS
Chain of PDI association with TF (P07237 18-508): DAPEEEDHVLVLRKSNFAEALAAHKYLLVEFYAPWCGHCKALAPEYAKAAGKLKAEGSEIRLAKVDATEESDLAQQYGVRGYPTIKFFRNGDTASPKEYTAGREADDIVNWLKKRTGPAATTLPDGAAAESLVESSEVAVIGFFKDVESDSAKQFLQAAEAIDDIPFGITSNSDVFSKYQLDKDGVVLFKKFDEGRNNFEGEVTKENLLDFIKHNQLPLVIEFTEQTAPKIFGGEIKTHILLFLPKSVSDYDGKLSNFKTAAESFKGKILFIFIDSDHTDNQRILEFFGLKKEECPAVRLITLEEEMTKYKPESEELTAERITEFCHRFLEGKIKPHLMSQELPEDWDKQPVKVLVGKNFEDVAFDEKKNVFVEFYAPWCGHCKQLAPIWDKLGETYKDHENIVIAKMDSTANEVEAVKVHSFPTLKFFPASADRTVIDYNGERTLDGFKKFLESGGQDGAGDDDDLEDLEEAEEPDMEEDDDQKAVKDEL
Chain of TF-PAR2 complex (P13726 33-295, one chain of several): as the sequence (P13726 33-295) above

As to `C[C@@H]1C[C@@H]([C@H](O)CC2CC(=O)NC(=O)C2)C(=O)[C@@H](C)C1` [cycloheximide], in assay [1], the TF-VIIa signaling entry is listed as “prevented TF-VIIa signaling”.
For `N[C@@H](CCC(=O)N[C@@H](CS)C(=O)NCC(=O)O)C(=O)O` [GSH, reduced glutathione], the “TF coagulant activity after Hg2+-induced activation and washout” value in assay [2] is listed as “no effect on TF activity”.
On to `[Cl][Hg][Cl]` [HgCl2], for which, in assay [2], the “Concentration required to enhance TF coagulant activity” value is 50 to 100 µM, the “HgCl2 activation of coagulation in the presence of bacitracin” value is recorded as “did not increase coagulation in the presence of bacitracin”, the “TF coagulant activity in high Ca2+ cells” value is recorded as “increased TF coagulant activity substantially” and the “TF coagulant activity in low Ca2+ cells” value is on record as “little effect”. In addition, the “PAR2 complex formation with TF in MAb-5G9 immunoprecipitates” value in assay [3] is “abolished PAR2 complex formation with TF”. Moreover, the “Association (co-precipitation) of PDI with TF” value in assay [4] is “specifically disrupted the association of PDI with TF”.
For `CC[C@H](C)[C@H](N)C1=N[C@H](C(=O)N[C@@H](CC(C)C)C(=O)N[C@H](CCC(=O)O)C(=O)N[C@H](C(=O)N[C@H]2CCCCNC(=O)[C@H](CC(N)=O)NC(=O)[C@@H](CC(=O)O)NC(=O)[C@H](Cc3cnc[nH]3)NC(=O)[C@@H](Cc3ccccc3)NC(=O)[C@H]([C@@H](C)CC)NC(=O)[C@@H](CCCN)NC2=O)[C@@H](C)CC)CS1` [bacitracin] ({Ileψ(thiazoline)Cys}-L[dE]IK[dOrn]I[dF]H[dD]N; lactam 4-C), the “HgCl2 activation of coagulation in the presence of bacitracin” value in assay [2] (HgCl2 with bacitracin) is on record as “reversible inhibitor of HgCl2 activation”. For the same compound, in assay [2] (high Ca2+ HaCaT cells, 100 μM HgCl2 for 2 minutes, bacitracin 3 mM), the “TF coagulant activity in high Ca2+ cells” value is listed as “slightly increased coagulant function of TF”. The “Association (co-precipitation) of PDI with TF” value in assay [4] (high Ca2+ HaCaT cells) is “prevented the co-precipitation of PDI with TF”. In addition, the TF-VIIa signaling entry in assay [1] (HaCaT cells, 10 nM VIIa) was “inhibited TF-VIIa signaling”.
Turning to `N[C@@H](CCC(=O)N[C@@H](CSN=O)C(=O)NCC(=O)O)C(=O)O` [S-nitrosoglutathione], in assay [2], the “TF coagulant activity after Hg2+-induced activation and washout” value is recorded as “sufficient to suppress TF coagulant activity”.

(Values after patent publication US20100028358A1, “Compositions and Methods for Controlling Tissue Factor Signaling Specificity” (priority 2005, published 2010).)
